Here are results for 5 compounds from patent US11998589B2, “PEGylated peptide amphiphile nanofibers and methods of use” (Northwestern University, priority 2020, dated 2024).

Data set [1] in a line: Cytotoxicity (calcein / ethidium homodimer live-dead staining). It counts as cell-based. The conditions noted are these: human, nHLF cultures, 36 hours culture; for viability at 36 h: normal human lung fibroblasts (nHLF), up to 100 μM PA, read-out: cells staining positive for calcein (percent viable cells). Here is the method: Cytotoxicity: Normal Human Lung Fibroblasts were obtained from Lonza and maintained in growth medium consisting of DMEM with 10% fetal bovine serum (FBS) and 1% penicillin/streptomycin. Cells (passage 5) were tryspinized and resuspended in media containing 2% FBS and 150 μl of the cell suspension was added to each well of a 96 well microplate for a total of 2,500 cells per well. After 2 hours attachment, 50 μl PA solutions diluted in PBS to 4 μM, 20 μM, 100 μM, or 400 μM were added to each well. After 36 hours culture, the media was removed and replaced with a solution of 2 μM calcein and 4 μM ethidium homodimer in PBS. After 30 minutes, cells were imaged using a Cytation 3 microplate reader. Live and Dead cells were counted using the MATLAB image Processing Toolbox to determine viability.

In data set [2] the test system is Human mesenchymal stem cells. Kind of data set: Alkaline phosphatase (ALP) activity, osteogenic differentiation. It counts as cell-based. The note with it: human MSCs, one week. Here is the method: Alkaline Phosphatase Activity: Human mesenchymal stem cells were obtained from Lonza and maintained in Mesenchymal Stem Cell Growth Media (Lonza). Cells were used for experiments prior to passage 6. Cells were trypsinized and resuspended in growth media containing high glucose DMEM supplemented with 10% FBS and 1% penicillin/streptomycin and 50 mg/L sodium ascorbate. 500 μl of the cell suspension was placed in each well of a 24 well plate and incubated for 24 hours. Media was removed and replaced with 540 μl of growth media or osteogenic media containing low glucose DMEM supplemented with 10% FBS, 50 mg/L sodium ascorbate 10 mM 3-glycerophosphate, and 100 nM dexamethasone. 60 μl of a 10 times concentrated PA solution in PBS was then added to each well. Every 3-4 days, media was replaced by removing 300 μl media and adding 270 μl growth media or osteogenic media and 30 μl of the 10 times concentrated PA solution in PBS. Alkaline phosphatase (ALP) activity was determined using the SensoLyte pNPP ALP Assay Kit (Anaspec, Fremont, CA) according to the manufacturer's instructions. […] The supernatant was mixed with the assay's detection buffer in a microplate and the optical absorbance was read after a four-hour incubation using a Cytation 3 microplate reader. […]

Data set [3] can be described thus: Nile red assay of aggregation. It counts as physicochemical. The conditions noted are these: buffers of 0 mM, 15 mM and 150 mM NaCl. The procedure:
Nile Red Assay: Following heat treatment, PA solutions were serially diluted in water (0 mM NaCl), or a buffer of 15 mM NaCl, or 150 mM NaCl. A solution of 100 μM Nile red was added to the PA solutions to one thousandth the total volume and incubated for 1 hour. The fluorescence spectrum was read from 600 nm to 700 nm using a BioTek Cytation 3 microplate reader using 560 nm excitation and the fluorescence shift was determined by subtracting the maximum […] wavelength for each sample from that of the dye solution diluted in each buffer alone.

The nature of data set [4]: Zeta potential of PA solutions. The class given is physicochemical. The conditions noted are these: for surface charge (zeta-potential), sign: neutral pH. The procedure: Zeta potential: Heat-treated PA solutions were diluted 20 times in 30 mM NaCl with 10 mM HCl, 30 mM NaCl, or 30 mM NaCl with 10 mM NaOH for pH 2, pH 7, and pH 12 respectively. For each PA, three separate samples were prepared at each pH. Samples were loaded in a disposable folded capillary cell and zeta-potential was measured at 25° C. using a Zetasizer Nano ZS (Malvern Instruments, Malvern, UK). The average of the three measurements for each sample was plotted.

Data set [5] is described as follows: Resuspension of purified PA in water. It counts as physicochemical. The note with it: purified molecule in water. The procedure:
Solubilization and Heat Treatment: PA powders were resuspended to 10 mM in water for experiments at pH 7, in 10 mM hydrochloric acid for pH 2 and 10 mM sodium hydroxide for pH 12. After resuspension, 1 M sodium hydroxide or 1 M hydrogen chloride were added to achieve the desired pH. To co-assemble PA molecules, PA solutions were mixed volumetrically, bath sonicated for 1 hour and then left on the bench to age for at least 2 hours. A solution of 150 mM NaCl was added to all samples to achieve a final NaCl concentration of 30 mM. All samples were heat treated at 80° C. for 30 minutes followed by gradual cooling by 1° C. per minute to 25° C.
To produce PA filaments without ionic charge, a short PEG chain was substituted for the ionizable amino acids typically included in PA molecules to maintain solubility of the PA in an aqueous environment. To form an uncharged PA filament, the sequence N-palmitoyl-VVAA was chosen as the aliphatic tail and hydrogen bonding peptide. As the hydrophilic domain, a 10-mer PEG amino acid was selected, which was hypothesized to be long enough to solubilize the PA while limiting steric repulsion among assembled molecules (PA1, FIG. 2A). The PA was synthesized by coupling the PEG amino acid to a rink-amide resin and completing the peptide using standard Fmoc solid phase peptide synthesis, leaving an uncharged amide group after cleavage from the resin. […]

Square brackets hold non-standard residues; d marks the D form. Peptide text beside a SMILES is read from it. * marks the point of attachment. PEG10 = NCCOCCOCCOCCOCCOCCOCCOCCOCCOCCOCCC(=O)O; Palmitoyl = CCCCCCCCCCCCCCCC(=O)* Where only a bound is given, the exact number is not on record here.

As for `CCCCCCCCCCCCCCCC(=O)N[C@H](C(=O)N[C@H](C(=O)N[C@@H](C)C(=O)N[C@@H](C)C(=O)N[C@@H](CCC(=O)O)C(=O)N[C@@H](CCC(=O)O)C(N)=O)C(C)C)C(C)C` [PA2] (Palmitoyl-VVAAEE-NH2), in data set [1], the viability at 36 h is more than 85%. Also, the “ALP activity (osteogenic differentiation) in growth media” value in data set [2] (growth media, various PA concentrations) is “increased with increasing PA2 concentration”. Moreover, the “ALP activity (osteogenic differentiation) in osteogenic media” value in data set [2] (osteogenic media with dexamethasone and β-glycerophosphate) is listed as “did not affect differentiation”. Also, in data set [3], the “aggregation as indicated by redshift in Nile red fluorescence, dependence on ionic strength” value is given as “depended on ionic strength of the buffer”. In data set [4], the “surface charge (zeta-potential), sign” value is “negatively”.

N-palmitoyl-VVAAEE-PEG10 [PA4]: the “Zeta-potential (surface charge)” value in data set [4] (pH 2) is reported as approximately 0 mV.

In general, EC50 refers to the concentration giving half of the maximal effect. Take `CCCCCCCCCCCCCCCC(=O)N[C@H](C(=O)N[C@H](C(=O)N[C@@H](C)C(=O)N[C@@H](C)C(=O)N[C@@H](CCCCN)C(=O)N[C@@H](CCCCN)C(N)=O)C(C)C)C(C)C` [PA3] (Palmitoyl-VVAAKK-NH2): the EC50 at 36 h in data set [1] (Normal Human Lung Fibroblasts (nHLF)) is 25 ± 4 µM. Further, in data set [3], the “aggregation as indicated by redshift in Nile red fluorescence, dependence on ionic strength” value is given as “less dependent on ionic strength than PA2”. Moreover, in data set [4], the “surface charge (zeta-potential), sign” value is reported as “positively charged”.

For N-palmitoyl-VVAAKK-PEGio [PA5], the “Zeta-potential (surface charge)” value in data set [4] (pH 12) is given as approximately 0 mV.

As for `CCCCCCCCCCCCCCCC(=O)N[C@H](C(=O)N[C@H](C(=O)N[C@@H](C)C(=O)N[C@@H](C)C(=O)NCCOCCOCCOCCOCCOCCOCCOCCOCCOCCOCCC(N)=O)C(C)C)C(C)C` [PA1] (Palmitoyl-VVAA[PEG10]-NH2), in data set [1], the viability at 36 h is more than 85%. Moreover, the “solubility in water (resuspension)” value in data set [5] is on record as “readily resuspended in water”.
